# In patent publication US4774330A, “Cephalosporin intermediates” (Hoffmann-La Roche Inc., priority 1980, dated 1988):
# Structures can show the parent of a compound that is named as a salt. Where two headings read alike, the source gives them in different places.
# What was measured:
# [1] = toxicity, 24 hours values; format: in vivo; conditions: 24 hours value; for MTD at 24 h: in vivo, read-out: Tolerated dosage
# Protocol: The compounds in accordance with the invention are non-toxic, as will be evident from the following data for the 24 hours values of products A and B: […]
# Proteus vulgaris = assay: MIC in vitro, Proteus vulgaris; format: cell-based
# Protocol: (§1) The following products were tested:
# (§2) The following results relate to the minimum inhibitory concentration (MIC) in vitro (μg/ml): […]
# Proteus mirabilis = assay: MIC in vitro, Proteus mirabilis; format: cell-based
# Protocol: as §1, §2
# Streptococcus faecalis = assay: MIC in vitro, Streptococcus faecalis; format: cell-based; conditions: Enterococcus faecalis
# Protocol: as §1, §2
# [2] = system: Staphylococcus epidermidis; assay: MIC in vitro, Staphylococcus epidermidis; format: cell-based
# Protocol: as §1, §2
# Escherichia coli [3] = assay: MIC in vitro, Escherichia coli; format: cell-based
# Protocol: as §1, §2
# Proteus rettgeri = assay: MIC in vitro, Proteus rettgeri; format: cell-based; conditions: Providencia rettgeri
# Protocol: as §1, §2
# Streptococcus pyogenes [4] = assay: MIC in vitro, Streptococcus pyogenes; format: cell-based
# Protocol: as §1, §2
# Serratia marcescens [5] = assay: MIC in vitro, Serratia marcescens; format: cell-based
# Protocol: as §1, §2
# Klebsiella pneumoniae = assay: MIC in vitro, Klebsiella pneumoniae; format: cell-based
# Protocol: as §1, §2
# Streptococcus pneumoniae = assay: MIC in vitro, Streptococcus pneumoniae; format: cell-based
# Protocol: as §1, §2
# Staphylococcus aureus = assay: MIC in vitro, Staphylococcus aureus; format: cell-based
# Protocol: as §1, §2
# Citrobacter freundii = assay: MIC in vitro, Citrobacter freundii; format: cell-based
# Protocol: as §1, §2
# Streptococcus viridans = assay: MIC in vitro, Streptococcus viridans; format: cell-based
# Protocol: as §1, §2
# Enterobacter aerogenes = assay: MIC in vitro, Enterobacter aerogenes; format: cell-based; conditions: Klebsiella aerogenes
# Protocol: as §1, §2
# Proteus inconstans = assay: MIC in vitro, Proteus inconstans; format: cell-based; conditions: Providencia alcalifaciens
# Protocol: as §1, §2
# Proteus morganii = assay: MIC in vitro, Proteus morganii; format: cell-based; conditions: Morganella morganii
# Protocol: as §1, §2
# Enterobacter cloacae = assay: MIC in vitro, Enterobacter cloacae; format: cell-based
# Protocol: as §1, §2
# Escherichia coli [6] = assay: s.c. treatment of mice before i.p. infection, Escherichia coli; format: in vivo; conditions: sc, administered 24 hours before the infection
# Protocol: The long retention of the products in accordance with the invention in the organism is also evident after the s.c. treatment of mice with product A or C 5 hours before a i.p. infection with the microorganism to be tested, the following Ed50 values being ascertained: | *Administered 24 hours before the infection.
# Streptococcus pyogenes [7] = assay: s.c. treatment of mice before i.p. infection, Streptococcus pyogenes; format: in vivo; conditions: sc, 5 hours before i.p. infection
# Protocol: (§3) The long retention of the products in accordance with the invention in the organism is also evident after the s.c. treatment of mice with product A or C 5 hours before a i.p. infection with the microorganism to be tested, the following Ed50 values being ascertained: […]
# Pseudomonas aeruginosa = assay: MIC in vitro, Pseudomonas aeruginosa; format: cell-based
# Protocol: as §1, §2
# Serratia marcescens [8] = assay: s.c. treatment of mice before i.p. infection, Serratia marcescens; format: in vivo; conditions: sc, 5 hours before i.p. infection
# Protocol: as §3
# Neisseria meningitidis = assay: MIC in vitro, Neisseria meningitidis; format: cell-based
# Protocol: as §1, §2
# [9] = half-life in vivo after i.v. administration; conditions: rat, plasma, iv; 20 mg i.v., rats
# From the text: The compounds of formula I as well as the corresponding readily hydrolyzable esters, readily hydrolyzable ethers and salts and the hydrates of same have antibiotic, especially bactericidal, activity.
# Haemophilus influenzae = assay: MIC in vitro, Haemophilus influenzae; format: cell-based
# Protocol: as §1, §2
# Neisseria gonorrhoeae = assay: MIC in vitro, Neisseria gonorrhoeae; format: cell-based
# Protocol: as §1, §2
structure (smiles),measurement,setting,value
"Cn1nc(OCOC(=O)C(C)(C)C)c(=O)nc1SCC1=C(C(=O)O)N2C(=O)[C@@H](NC(=O)/C(=N\O)c3csc(N)n3)[C@H]2SC1 [Product B, (6R,7R)-7-[2-(2-Amino-4-thiazolyl)-2-(Z-hydroxyimino)acetamindo]-3-[[[2,5-dihydro-2-methyl-5-oxo-6-[(pivaloyloxy)methoxy]-as-triazin-3-yl]thio]methyl]-8-oxo-5-thia-1-azabicyclo[4.2.0]oct-2-ene-2-carboxylic acid sodium salt]",MTD at 24 h,"[1]; sc, subcutaneous",> 4000 mg/kg
same,MTD at 24 h,[1]; oral,> 5000 mg/kg
same,MIC,Proteus vulgaris; strain 4,12.5 µg/mL
same,MIC,Proteus vulgaris; strain 5,0.8 µg/mL
same,MIC,Proteus vulgaris; strain 6,0.8 µg/mL
same,MIC,Proteus mirabilis; strain 2,0.4 µg/mL
same,MIC,Proteus mirabilis; strain 3,1.6 µg/mL
same,MIC,Proteus mirabilis; strain 4,0.8 µg/mL
same,MIC,Streptococcus faecalis; strain 1,6.3 µg/mL
same,MIC,Streptococcus faecalis; strain 2,> 25 µg/mL
same,MIC,[2],0.4 µg/mL
same,MIC,Escherichia coli [3]; strain 5,0.4 µg/mL
same,MIC,Escherichia coli [3]; strain 6,0.2 µg/mL
same,MIC,Escherichia coli [3]; strain 7,0.05 µg/mL
same,MIC,Escherichia coli [3]; strain 8,0.8 µg/mL
same,MIC,Proteus rettgeri; strain 2,0.4 µg/mL
same,MIC,Streptococcus pyogenes [4]; strain 1,0.025 µg/mL
same,MIC,Streptococcus pyogenes [4]; strain 2,0.025 µg/mL
same,MIC,Serratia marcescens [5]; strain 10,6.3 µg/mL
same,MIC,Serratia marcescens [5]; strain 11,12.5 µg/mL
same,MIC,Serratia marcescens [5]; strain 12,1.6 µg/mL
same,MIC,Klebsiella pneumoniae; strain 2,1.6 µg/mL
same,MIC,Klebsiella pneumoniae; strain 3,0.4 µg/mL
same,MIC,Klebsiella pneumoniae; strain 4,0.8 µg/mL
same,MIC,Streptococcus pneumoniae,0.1 µg/mL
same,MIC,Staphylococcus aureus; strain 3,0.4 µg/mL
same,MIC,Staphylococcus aureus; strain 4,0.8 µg/mL
same,MIC,Staphylococcus aureus; strain 5,0.4 µg/mL
same,MIC,Staphylococcus aureus; strain 6,0.8 µg/mL
same,MIC,Citrobacter freundii; strain 2,3.1 µg/mL
same,MIC,Citrobacter freundii; strain 3,0.4 µg/mL
same,MIC,Streptococcus viridans,0.4 µg/mL
same,MIC,Enterobacter aerogenes; strain 1,0.2 µg/mL
same,MIC,Enterobacter aerogenes; strain 2,1.6 µg/mL
same,MIC,Proteus inconstans; strain 2,0.2 µg/mL
same,MIC,Proteus inconstans; strain 3,≤ 0.025 µg/mL
same,MIC,Proteus morganii; strain 2,1.6 µg/mL
same,MIC,Enterobacter cloacae; strain 3,> 25 µg/mL
same,MIC,Enterobacter cloacae; strain 4,6.3 µg/mL
"Cn1nc(OCOC(=O)C(C)(C)C)c(=O)nc1SCC1=C(C(=O)OCOC(=O)C(C)(C)C)N2C(=O)[C@@H](NC(=O)/C(=N\O)c3csc(N)n3)[C@H]2SC1 [Product C, Methylene-(6R,7R)-7-[2-(2-amino-4-thiazolyl)-2-(Z-hydroxyimino)acetamido]-3-[[[2,5-dihydro-2-methyl-5-oxo-6-[(pivaloyloxy)methoxy]-as-triazin-3-yl]thio]methyl]-8-oxo-5-thia-1-azabicyclo[4.2.0]-oct-2-ene-2-carboxylate pivalate]",ED50,Escherichia coli [6],5.6 mg/kg
same,ED50,Streptococcus pyogenes [7],0.45 mg/kg
"Cn1nc(O)c(=O)nc1SCC1=C(C(=O)O)N2C(=O)[C@@H](NC(=O)/C(=N\O)c3csc(N)n3)[C@H]2SC1 [Product A, (6R,7R)-7-[2-(2-Amino-4-thiazolyl)-2-(Z-hydroxyimino)acetamido]-3-/[(2,5-dihydro-6-hydroxy-2-methyl-5-oxo-as-triazin-3-yl)thio]methyl/-8-oxo-5-thia-1-azabicyclo[4.2.0]oct-2-ene-2-carboxylic acid disodium salt]",MTD at 24 h,[1]; intravenous,500 mg/kg
same,MTD at 24 h,[1]; oral,5000 mg/kg
same,Lethal dosage,[1]; intravenous,1000 mg/kg
same,Lethal dosage,[1]; oral,> 5000 mg/kg
same,Lethal dosage,[1]; subcutaneous,> 4000 mg/kg
same,MIC,Proteus vulgaris; strain 1,0.31 µg/mL
same,MIC,Proteus vulgaris; strain 2,0.31 µg/mL
same,MIC,Proteus vulgaris; strain 3,0.63 µg/mL
same,MIC,Proteus vulgaris; strain 4,3.1 µg/mL
same,MIC,Proteus vulgaris; strain 5,0.1 µg/mL
same,MIC,Proteus vulgaris; strain 6,0.05 µg/mL
same,MIC,Pseudomonas aeruginosa; strain 1,> 80 µg/mL
same,MIC,Pseudomonas aeruginosa; strain 2,> 80 µg/mL
same,MIC,Pseudomonas aeruginosa; strain 3,40 µg/mL
same,MIC,Pseudomonas aeruginosa; strain 4,80 µg/mL
same,MIC,Pseudomonas aeruginosa; strain 5,> 80 µg/mL
same,MIC,Pseudomonas aeruginosa; strain 6,10 µg/mL
same,MIC,Pseudomonas aeruginosa; strain 7,5 µg/mL
same,MIC,Pseudomonas aeruginosa; strain 8,20 µg/mL
same,MIC,Pseudomonas aeruginosa; strain 9,> 80 µg/mL
same,MIC,Pseudomonas aeruginosa; strain 10,10 µg/mL
same,MIC,Pseudomonas aeruginosa; strain 11,5 µg/mL
same,MIC,Pseudomonas aeruginosa; strain 12,> 80 µg/mL
same,MIC,Pseudomonas aeruginosa; strain 13,80 µg/mL
same,MIC,Pseudomonas aeruginosa; strain 14,> 80 µg/mL
same,MIC,Pseudomonas aeruginosa; strain 15,80 µg/mL
same,MIC,Pseudomonas aeruginosa; strain 16,> 80 µg/mL
same,MIC,Pseudomonas aeruginosa; strain 17,> 80 µg/mL
same,ED50,Serratia marcescens [8],0.89 mg/kg
same,MIC,Neisseria meningitidis; strain 1,0.0025 µg/mL
same,MIC,Neisseria meningitidis; strain 2,0.0025 µg/mL
same,MIC,Neisseria meningitidis; strain 3,0.0025 µg/mL
same,MIC,Neisseria meningitidis; strain 4,0.0012 µg/mL
same,MIC,Proteus mirabilis; strain 1,0.02 µg/mL
same,MIC,Proteus mirabilis; strain 2,0.025 µg/mL
same,MIC,Proteus mirabilis; strain 3,0.05 µg/mL
same,MIC,Proteus mirabilis; strain 4,0.025 µg/mL
same,half-life,[9],2.33 h
same,MIC,Haemophilus influenzae; strain 1,0.63 µg/mL
same,MIC,Haemophilus influenzae; strain 2,0.04 µg/mL
same,MIC,Haemophilus influenzae; strain 3,0.04 µg/mL
same,MIC,Haemophilus influenzae; strain 4,0.04 µg/mL
same,MIC,Haemophilus influenzae; strain 5,0.04 µg/mL
same,MIC,Haemophilus influenzae; strain 6,0.02 µg/mL
same,MIC,Haemophilus influenzae; strain 7,0.04 µg/mL
same,MIC,Streptococcus faecalis; strain 1,25 µg/mL
same,MIC,Streptococcus faecalis; strain 2,> 25 µg/mL
same,MIC,[2],1.6 µg/mL
same,MIC,Escherichia coli [3]; strain 1,1.2 µg/mL
same,MIC,Escherichia coli [3]; strain 2,1.2 µg/mL
same,MIC,Escherichia coli [3]; strain 3,2.5 µg/mL
same,MIC,Escherichia coli [3]; strain 4,0.31 µg/mL
same,MIC,Escherichia coli [3]; strain 5,0.4 µg/mL
same,MIC,Escherichia coli [3]; strain 6,0.2 µg/mL
same,MIC,Escherichia coli [3]; strain 7,0.025 µg/mL
same,MIC,Escherichia coli [3]; strain 8,0.05 µg/mL
same,MIC,Proteus rettgeri; strain 1,0.63 µg/mL
same,MIC,Proteus rettgeri; strain 2,0.05 µg/mL
same,MIC,Streptococcus pyogenes [4]; strain 1,0.1 µg/mL
same,MIC,Streptococcus pyogenes [4]; strain 2,0.05 µg/mL
same,ED50,Streptococcus pyogenes [7],0.15 mg/kg
same,MIC,Serratia marcescens [5]; strain 1,0.16 µg/mL
same,MIC,Serratia marcescens [5]; strain 2,0.31 µg/mL
same,MIC,Serratia marcescens [5]; strain 3,0.31 µg/mL
same,MIC,Serratia marcescens [5]; strain 4,0.63 µg/mL
same,MIC,Serratia marcescens [5]; strain 5,0.31 µg/mL
same,MIC,Serratia marcescens [5]; strain 6,0.31 µg/mL
same,MIC,Serratia marcescens [5]; strain 7,0.31 µg/mL
same,MIC,Serratia marcescens [5]; strain 8,0.31 µg/mL
same,MIC,Serratia marcescens [5]; strain 9,0.16 µg/mL
same,MIC,Serratia marcescens [5]; strain 10,0.8 µg/mL
same,MIC,Serratia marcescens [5]; strain 11,6.3 µg/mL
same,MIC,Serratia marcescens [5]; strain 12,0.1 µg/mL
same,MIC,Klebsiella pneumoniae; strain 1,0.02 µg/mL
same,MIC,Klebsiella pneumoniae; strain 2,0.1 µg/mL
same,MIC,Klebsiella pneumoniae; strain 3,0.025 µg/mL
same,MIC,Klebsiella pneumoniae; strain 4,0.05 µg/mL
same,MIC,Neisseria gonorrhoeae; strain 1,0.0012 µg/mL
same,MIC,Neisseria gonorrhoeae; strain 2,0.0012 µg/mL
same,MIC,Neisseria gonorrhoeae; strain 3,0.02 µg/mL
same,MIC,Neisseria gonorrhoeae; strain 4,0.01 µg/mL
same,MIC,Neisseria gonorrhoeae; strain 5,0.04 µg/mL
same,MIC,Neisseria gonorrhoeae; strain 6,0.0006 µg/mL
same,MIC,Streptococcus pneumoniae,0.4 µg/mL
same,MIC,Staphylococcus aureus; strain 1,0.62 µg/mL
same,MIC,Staphylococcus aureus; strain 2: β-lactamase producing,1.2 µg/mL
same,MIC,Staphylococcus aureus; strain 3,1.6 µg/mL
same,MIC,Staphylococcus aureus; strain 4,1.6 µg/mL
same,MIC,Staphylococcus aureus; strain 5,1.6 µg/mL
same,MIC,Staphylococcus aureus; strain 6,3.1 µg/mL
same,MIC,Citrobacter freundii; strain 1,80 µg/mL
same,MIC,Citrobacter freundii; strain 2,6.3 µg/mL
same,MIC,Citrobacter freundii; strain 3,0.2 µg/mL
same,MIC,Streptococcus viridans,1.6 µg/mL
same,MIC,Enterobacter aerogenes; strain 1,0.1 µg/mL
same,MIC,Enterobacter aerogenes; strain 2,0.8 µg/mL
same,MIC,Proteus inconstans; strain 1,0.08 µg/mL
same,MIC,Proteus inconstans; strain 2,0.01 µg/mL
same,MIC,Proteus inconstans; strain 3,≤ 0.025 µg/mL
same,MIC,Proteus morganii; strain 1,≤ 0.04 µg/mL
same,MIC,Proteus morganii; strain 2,0.05 µg/mL
same,MIC,Enterobacter cloacae; strain 1,20 µg/mL
same,MIC,Enterobacter cloacae; strain 2,> 80 µg/mL
same,MIC,Enterobacter cloacae; strain 3,> 25 µg/mL
same,MIC,Enterobacter cloacae; strain 4,12.5 µg/mL
